# Marks after values point to notes of the source that are not given here.
# Tested on: B16.BL6 melanoma cells
# Assay: Flow cytometry with FITC-labelled GS1B4 (Example 13)
# Assay type: cell-based
# Experimental: The alpha-Gal trisaccharide probe (9) was dissolved in HBSS (Gibco Invitrogen, Taastrup, Denmark) and passed through a sterile filter (0.2 μm Supor® Acrodisc® 13, Gelman Sciences, Ann Arbor, Mich.). Three different concentrations of the alpha-Gal trisaccharide-carbamate (9) were made. Five small flasks were prepared with 606 μL of cell suspension containing a total of 10^6 B16.BL6 cells in addition to 4 mL of one of the conjugate solutions. Each flask contained a total volume of 4.6 mL. The cells were incubated with the “Glycom conjugate” for either 3 or 1.5 hours at 37° C.
# After conjugation, the supernatant from each flask was transferred to separate 10 mL tubes (TPP, Trasadingen Switzerland). Cells were washed twice by adding PBS to the flasks and immediately removing it again. The cells were harvested with Cell Dissociation Solution (2 mL per flask) (Sigma-aldrich, Saint Louis, Mo.). After 5 minutes, cells were transferred to the 10 mL test tubes. The cells were centrifuged for 5 minutes at 300 G at 20° C. and resuspended in 0.5 mL of PBS. Cell concentration and viability was determined by microscopic evaluation of trypan blue stained cell samples.
# One hundred μL of cell suspension containing 1×10^5 cells were incubated for 15 minutes at 4° C. with 10 μg per mL (1:100 dilution) of FITC-labelled GS1B4 in PBS. Rabbit red blood cells (A) were used for comparison,
# As very few cells were available for flow cytometry analysis the exact cell concentration was not determined. Instead, the amount of cells used was estimated to 0.4×10^5. The cells were incubated for 15 minutes at 4° C. with 4 μg per mL of FITC-labelled GS1B4 in PBS. Rabbit red blood cells (B) were used for comparison.
# Mean and median cell fluorescence intensity was determined by flow cytometry.
# [1] = reaction 1, 19.2 mg, 3 hours, 10 μg per mL FITC-GS1B4
# [2] = reaction 2, 19.2 mg, 1.5 hours, group of 35.3% of the cells
# [3] = reaction 2, 19.2 mg, 1.5 hours, group of 62.7% of the cells
# [4] = reaction 4, 58 mg, 1.5 hours, group of 15.65% of the cells
# [5] = reaction 4, 58 mg, 1.5 hours, group of 84.26% of the cells
structure (smiles),measurement,setting,value
"O=C1N[C@@H]2O[C@H](CO)[C@@H](O[C@@H]3O[C@H](CO)[C@H](O)[C@H](O[C@H]4O[C@H](CO)[C@H](O)[C@H](O)[C@H]4O)[C@H]3O)[C@H](O)[C@H]2O1 [Compound 9, alpha-Gal trisaccharide-carbamate]","Galα1,3Gal epitopes detected by binding of FITC-labelled GS1B4, flow cytometry","all conjugation reactions (1.9-58 mg, 1.5 or 3 hours)",found on B16.BL6 cells from all conjugation reactions
same,Mean fluorescence intensity,[1],197.8
same,Median fluorescence intensity,[1],155.4
same,Share of the cells in the group of higher fluorescence intensity,"reaction 2, 19.2 mg, 1.5 hours",2 (35.3% of the cells)**
same,Share of the cells in the group of lower fluorescence intensity,"reaction 2, 19.2 mg, 1.5 hours",2 (62.7% of the cells)**
same,Mean fluorescence intensity,[2],2940.2
same,Median fluorescence intensity,[2],2196.8
same,Mean fluorescence intensity,[3],161.63
same,Median fluorescence intensity,[3],125.2
same,Mean fluorescence intensity,"reaction 3, 1.9 mg, 1.5 hours",167.8
same,Median fluorescence intensity,"reaction 3, 1.9 mg, 1.5 hours",66.4
same,Share of the cells in the group of higher fluorescence intensity,"reaction 4, 58 mg, 1.5 hours",4 (15.65% of the cells)
same,Share of the cells in the group of lower fluorescence intensity,"reaction 4, 58 mg, 1.5 hours",4 (84.26% of the cells)
same,Mean fluorescence intensity,[4],770.0
same,Median fluorescence intensity,[4],504.8
same,Mean fluorescence intensity,[5],49.2
same,Median fluorescence intensity,[5],44.1
